# Laboratory results reported in publication PMC10633902, “Investigating the antimicrobial activity, cytotoxicity, and action mechanism of acylated and amidated derivatives of AurH1 antifungal peptide” (BMC Microbiology, 2023).
# Where two headings read alike, the source gives them in different places. No end group written: not given here.
# Legend:
# human red blood cells = assay type: cell-based; conditions: 1 h
# Protocol: A hemolytic assay was performed to investigate the effects of peptides on human red blood cells. First, 5 ml of fresh human blood was taken from a volunteer. After that, 20% (v/v) suspension of human erythrocytes was prepared and diluted in PBS (1:20). Next, 100 µL of this blood suspension was added in triplicate to 100 µL of a 2-fold serial dilution series of the peptide in a 96‐well plate. 1% Triton-X 100 was used as a positive control to lyse 100% of RBCs, and sterile 0.9% NaCl solution was used as a negative control. Then the plates were incubated at 37 °C for 1 h and centrifuged at 3500 rpm for 10 min. Next, 100 µL of the supernatant was transferred to a new 96-well plate to measure the absorbance at 414 nm using a microplate reader (STAT FAX 2100, BioTek, Winooski, USA). Finally, the percentage of hemolysis was calculated as follows: […]
# [1] = system: Candida glabrata (ATCC 90,030); test: microbe, parasite or virus in culture; assay type: cell-based; conditions: ATCC 90, 24 h
# Protocol: (§1) The human skin fibroblast (Hu02 cell) and human breast cancer cells (MDA-MB-231 and SKBR-3 cell lines) were purchased from the National Cell Bank of Iran, Pasture Institute of Ira) for cytotoxicity test. Antimicrobial effects of the Ac-AurH1, AurH1-NH2, and AurH1 against the selected bacteria and fungi were conducted using a standard serial dilution method in a 96-well microplate. For this purpose, the desired fungal and bacterial strains were grown overnight at 37 °C (Some of the fungi were incubated at 25 °C) in related media (SDA for fungi and MHA for bacteria). […] Next, serially diluted synthetic peptides in a volume of 100 μL were added to the microtitre plates, followed by 100 μL of bacteria and fungi to give a final inoculum of 5 × 10^5 colony-forming units (CFU)/ml (a 0.5 McFarland standard inoculum). […] In this test, penicillin and streptomycin antibiotics for bacteria and fluconazole, nystatin, and amphotericin B for fungal strains were used as antibiotic control. […] All tests were repeated three times independently.
# [2] = system: Staphylococcus aureus (ATCC 25,923); test: microbe, parasite or virus in culture; assay type: cell-based
# Protocol: as §1
# [3] = system: Aspergillus flavus (ATCC 24,109); test: microbe, parasite or virus in culture; assay type: cell-based; conditions: ATCC 24, 24 h
# Protocol: as §1
# [4] = system: Candida albicans (ATCC 10,231); test: microbe, parasite or virus in culture; assay type: cell-based; conditions: ATCC 10, 24 h
# Protocol: as §1
# [5] = system: Aspergillus niger (ATCC 9142); test: microbe, parasite or virus in culture; assay type: cell-based; conditions: ATCC 9142, 24 h
# Protocol: as §1
# [6] = system: Candida krusei (ATCC 28,870); test: microbe, parasite or virus in culture; assay type: cell-based; conditions: ATCC 28, 24 h
# Protocol: as §1
# [7] = system: Escherichia coli (ATCC 25,922); test: microbe, parasite or virus in culture; assay type: cell-based
# Protocol: as §1
# [8] = system: Human skin fibroblast (Hu02 cells); assay type: cell-based
# Protocol: Toxicity of peptides on Human skin fibroblast (Hu02 cells) and two human breast cancer cell lines (MDA-MB-231 and SKBR3 cell lines) measured by an MTT assay. At first, cell lines with a density of 1 × 10^5 cells were cultured in the wells of 96-well plates for 24 h under standard conditions (37 °C temperature, 5% CO2 atmosphere with 95% relative humidity). After that, the old medium was replaced with fresh medium (with 10% FBS) containing different peptide concentrations, and the cells were incubated for 24 h. A medium without peptide was used as a negative control. After 24 h of incubation and washing the wells with PBS, the medium (containing 10% FBS) was replaced with fresh medium containing 10% MTT solution (freshly prepared 5 mg/ml MTT in PBS), and the plate was incubated for four h in 5% CO2, at 37 °C. Next, the medium was removed from the wells, and 100 µL DMSO was added. Afterward, the plate was shaken to dissolve Formazan crystals. Finally, by a microplate reader (STAT FAX 2100, BioTek, Winooski, USA), the absorbance values were measured at a wavelength of 595 nm. The percentage of toxicity was calculated as follows: […]
# C. krusei = assay type: cell-based, Candida krusei
# Protocol: (§2) The microbial inoculum was prepared based on broth micro-dilution assay to generate a concentration of fungi corresponding to 5 × 10^5 CFU/mL. […] The obtained results were analyzed in terms of the fractional inhibitory concentration index (FIC): [drawing 4] AMPs and antibiotics are antagonistic if FIC ≥ 4.0, indifference if > 1 FIC < 4.0, additive if > 0.5 FIC ≤ 1, and synergism if FIC ≤ 0.5.
# C. albicans [9] = test: Killing kinetic assay (time of killing); assay type: cell-based, Candida albicans; conditions: 1X MIC concentration
# C. albicans [10] = test: Effect of salts and human serum on antimicrobial activity (MIC); assay type: cell-based, Candida albicans
# Protocol: To evaluate the effect of salts and human serum on the antimicrobial activity of the AurH1-NH2 and AurH1 peptides, their antimicrobial activity (MICs values) against C. albicans under different conditions containing salt and human serum was determined. Therefore, mid-logarithmic phase yeasts diluted to 5 × 10^5 CFU/ml in SDB were added to related media containing different concentrations of human serum (10%, 20%, and 30%) and salts (150 mM NaCl and 1mM MgCl2), and incubated at 37 °C for 24 h.
# C. albicans [11] = assay type: cell-based, Candida albicans
# Protocol: as §2
# C. albicans [12] = test: FE-SEM of C. albicans surface after peptide treatment; assay type: cell-based, Candida albicans; conditions: 0.5 X MIC
# Protocol: At first, C. albicans were cultured in broth media. Next, yeasts were deposited by centrifugation (4000 rpm for 1 min) and washed (Three times) with PBS (pH 7.4). […] The samples were centrifuged at 4000 rpm for 1 min, washed three times in PBS, and put on the glass slides (1cm2). Subsequently, cells were dehydrated with ethanol gradient (at 10, 30, 60, 70, and 90%). After that, the dehydrated cells were dissolved in 100% ethanol for 15 min and dried at room temperature (25 °C). Finally, C. albicans cells were coated with gold nanoparticles by an automatic sputter coater and observed using an FE-SEM instrument (JSM-7610 F, JEOL Co., Japan and MIRA3, TESCAN Co., Czech).
# C. glabrata = assay type: cell-based, Candida glabrata
# Protocol: as §2
# C. albicans [13] = test: Ergosterol binding assay (MIC in presence and absence of ergosterol); assay type: cell-based, Candida albicans
# Protocol: An ergosterol binding assay was performed to measure the binding potency of peptides to fungal membrane sterols. For this purpose, the ergosterol was dissolved in DMSO and Tween-20, it was heated to increase the solubility of the formed emulsion and diluted in an SDB medium at a concentration of […] and incubated at 37 °C for 1 h. After that, MIC of the AurH1, Ac-AurH1, and AurH1-NH2 peptides was measured by the micro-dilution method in the presence and absence of ergosterol in different concentrations ([…]) against C. albicans.
# [14] = in combination with amphotericin B (Amph)
# [15] = in combination with fluconazole (Flu)
# [16] = in combination with nystatin (Nys)
substance,measurement,setting,value
"Ac-WFKIIKK [Ac-AurH1, Ac-WFKIIKK]",HC50 (concentration that lyses 50% of red blood cells),human red blood cells,"10,127 µg/ml"
same,MIC,[1],> 1000 µg/mL
same,MIC,"[2]; ATCC 25, 24 h",> 1000 µg/mL
same,MIC,[3],> 1000 µg/mL
same,MBC (MFC),[4],> 1000 µg/mL
same,MIC,[4],250 µg/mL
same,MIC,[5],> 1000 µg/mL
same,MBC (MFC),[6],> 1000 µg/mL
same,MIC,[6],500 µg/mL
same,MIC,"[7]; ATCC 25, 24 h",> 1000 µg/mL
same,toxicity,[8],more than 10%
"H-WFKIIKK-NH2 [AurH1-NH2, WFKIIKK-NH2]",Interpretation,C. krusei; [14],Synergy (synergism if FIC ≤ 0.5)
same,Interpretation,C. krusei; [15],Indifference (indifference if > 1 FIC < 4.0)
same,Interpretation,C. krusei; [16],Antagonist (antagonistic if FIC ≥ 4.0)
same,time to kill all C. albicans (maximum fungicidal effect),C. albicans [9],12 h
same,MIC,C. albicans [10]; SDB,7.81 µg/mL
same,MIC,C. albicans [10]; SDB + 10% serum (human),7.81 µg/mL
same,MIC,C. albicans [10]; SDB + 20% serum (human),7.81 µg/mL
same,MIC,C. albicans [10]; SDB + 30% serum (human),15.6 µg/mL
same,MIC,C. albicans [10]; SDB + MgCl2 (1 mM),7.81 µg/mL
same,MIC,C. albicans [10]; SDB + NaCl (150 mM),7.81 µg/mL
same,Interpretation,C. albicans [11]; [14],Synergy (synergism if FIC ≤ 0.5)
same,Interpretation,C. albicans [11]; [15],Indifference (indifference if > 1 FIC < 4.0)
same,Interpretation,C. albicans [11]; [16],Indifference (indifference if > 1 FIC < 4.0)
same,surface morphology change (FE-SEM),C. albicans [12]; after 2 h,shrinkages in cell-surface
same,surface morphology change (FE-SEM),C. albicans [12]; after 4 h,increase was seen in the amount of cell surface shrinkage and cell roughening
same,surface morphology change (FE-SEM),C. albicans [12]; after 6 h,blisters and surface pores on the cell surface were created
same,Interpretation,C. glabrata; [14],Synergy (synergism if FIC ≤ 0.5)
same,Interpretation,C. glabrata; [15],Indifference (indifference if > 1 FIC < 4.0)
same,Interpretation,C. glabrata; [16],Antagonist (antagonistic if FIC ≥ 4.0)
same,HC50 (concentration that lyses 50% of red blood cells),human red blood cells,"14,246 µg/ml"
same,MBC (MFC),[1],62.5 µg/mL
same,MIC,[1],62.5 µg/mL
same,MIC,"[2]; ATCC 25, 24 h",> 1000 µg/mL
same,MBC (MFC),[3],1000 µg/mL
same,MIC,[3],250 µg/mL
same,MBC (MFC),[4],62.50 µg/mL
same,MIC,[4],7.81 µg/mL
same,MBC (MFC),[5],500 µg/mL
same,MIC,[5],125 µg/mL
same,MBC (MFC),[6],31.25 µg/mL
same,MIC,[6],7.81 µg/mL
same,MIC,"[7]; ATCC 25, 24 h",> 1000 µg/mL
same,MIC,C. albicans [13]; after treatment with Ergosterol (Erg),7.81 µg/mL
same,MIC,C. albicans [13]; before treatment with Ergosterol (substance alone),7.81 µg/mL
same,toxicity,[8],no significant toxicity
Penicillin [reference compound],MIC,"[2]; S. aureus, mean of 3 independent tests",0.45/NA µg/mL
same,MIC,"[7]; E. coli, mean of 3 independent tests",31.25/NA µg/mL
